{"source": "patent US20240239772A1", "about": "“PROTEASE INHIBITORS AND METHODS OF USE” (The Cleveland Clinic Foundation, priority 2021, published 2024)", "data": [{"molecular_target": "SARS-CoV-2 3CLpro (Severe acute respiratory syndrome coronavirus 2 (2019-nCoV) (SARS-CoV-2), UniProt P0DTD1)", "assay": "biochemical", "type": "biochemical", "details": "not given", "units": {"IC50": "nM"}, "values": [{"molecule": "CC(c1cc(F)cc(Cl)c1)N(C(=O)Cn1nnc2ccccc21)c1ccc(-c2c[nH]cn2)cc1", "note": "(racemic) [Compound 73, 2-(benzotriazol-1-yl)-N-[4-(1H-imidazol-4-yl)phenyl]-N-[rac-(1R)-1-(3-chloro-5-fluoro-phenyl)ethyl]acetamide]", "IC50": 100}]}, {"molecular_target": "SARS-CoV-2 3CLpro (Severe acute respiratory syndrome coronavirus 2 (2019-nCoV) (SARS-CoV-2), UniProt P0DTD1)", "assay": "biochemical", "type": "biochemical", "details": "read-out: SARS-CoV-2 IC50", "units": {"IC50": "nM"}, "values": [{"molecule": "O=C(Cn1nnc2ccccc21)N(Cc1cccc(Cl)c1)c1ccc(-c2ccc[nH]c2=O)cc1", "note": "[Compound 35, 2-(1H-Benzo[d][1,2,3]triazol-1-yl)-N-(3-chlorobenzyl)-N-(4-(2-oxo-1,2-dihydropyridin-3-yl)phenyl)acetamide]", "IC50": "746 ± 98"}, {"molecule": "O=C(Cn1nnc2ccccc21)N(Cc1cccc(Cl)c1)c1ccc(-c2cccnc2)cc1", "note": "[Compound 28, 2-(Benzotriazol-1-yl)-N-[(3-chlorophenyl)methyl]-N-[4-(3-pyridyl)phenyl]acetamide]", "IC50": "390 ± 110"}, {"molecule": "N#Cc1cccc(CN(C(=O)Cn2nnc3ccccc32)c2ccc(-c3c[nH]cn3)cc2)c1", "note": "[Compound 77, 2-(benzotriazol-1-yl)-N-[(3-cyanophenyl)methyl]-N-[4-(1H-imidazol-4-yl)phenyl]acetamide]", "IC50": 640}, {"molecule": "O=C(Cn1nnc2ccccc21)N(CC1CCC1)c1ccc(-c2c[nH]cn2)cc1", "note": "[Compound 79, 2-(benzotriazol-1-yl)-N-(cyclobutylmethyl)-N-[4-(1H-imidazol-4-yl)phenyl]acetamide]", "IC50": 1100}, {"molecule": "NCCc1ccc(N(Cc2cc(F)cc(F)c2)C(=O)Cn2nnc3ccccc32)cc1", "note": "[Compound 107, N-[4-(2-aminoethyl)phenyl]-2-(benzotriazol-1-yl)-N-[(3,5-difluorophenyl)methyl]acetamide]", "IC50": 430}, {"molecule": "Cc1[nH]cnc1-c1ccc(N(Cc2cc(F)cc(Cl)c2)C(=O)Cn2nnc3ccccc32)cc1", "note": "[Compound 74, 2-(benzotriazol-1-yl)-N-[(3-chloro-5-fluoro-phenyl)methyl]-N-[4-(5-methyl-1H-imidazol-4-yl)phenyl]acetamide]", "IC50": 350}, {"molecule": "CC(C)CCN(C(=O)Cn1nnc2ccccc21)c1ccc(-c2cccnc2)cc1", "note": "[Compound 22, 2-(1H-Benzo[d][1,2,3]triazol-1-yl)-N-isopentyl-N-(4-(pyridin-3-yl)phenyl)acetamide]", "IC50": "4620 ± 130"}, {"molecule": "O=C(Cn1nnc2ccccc21)N(CC1CCC1)c1ccc(-c2cccnc2)cc1", "note": "[Compound 24, 2-(1H-Benzo[d][1,2,3]triazol-1-yl)-N-(cyclobutylmethyl)-N-(4-(pyridin-3-yl)phenyl)acetamide]", "IC50": "830 ± 30"}, {"molecule": "O=C(Cn1nnc2ccccc21)N(Cc1cc(Cl)ccc1F)c1ccc(-c2c[nH]cn2)cc1", "note": "[Compound 83, 2-(benzotriazol-1-yl)-N-[(5-chloro-2-fluoro-phenyl)methyl]-N-[4-(1H-imidazol-4-yl)phenyl]acetamide]", "IC50": 76}, {"molecule": "Cn1cc(-c2ccc(N(Cc3ccsc3)C(=O)Cn3nnc4ccccc43)cc2)cn1", "note": "[Compound 18, 2-(Benzotriazol-1-yl)-N-[4-(1-methylpyrazol-4-yl)phenyl]-N-(3-thienylmethyl)acetamide]", "IC50": "20400 ± 420"}, {"molecule": "Cc1nc(-c2ccc(N(Cc3cc(F)cc(F)c3)C(=O)Cn3nnc4ccccc43)cc2)c[nH]1", "note": "[Compound 104, 2-(benzotriazol-1-yl)-N-[(3,5-difluorophenyl)methyl]-N-[4-(2-methyl-1H-imidazol-4-yl)phenyl]acetamide]", "IC50": 170}, {"molecule": "COc1ccc(F)cc1CN(C(=O)Cn1nnc2ccccc21)c1ccc(-c2c[nH]cn2)cc1", "note": "[Compound 110, 2-(benzotriazol-1-yl)-N-[(5-fluoro-2-methoxy-phenyl)methyl]-N-[4-(1H-imidazol-4-yl)phenyl]acetamide]", "IC50": 200}, {"molecule": "COc1ccc(Cl)cc1CN(C(=O)Cn1nnc2ccccc21)c1ccc(-c2c[nH]cn2)cc1", "note": "[Compound 86, 2-(benzotriazol-1-yl)-N-[(5-chloro-2-methoxy-phenyl)methyl]-N-[4-(1H-imidazol-4-yl)phenyl]acetamide]", "IC50": 180}, {"molecule": "O=C(Cn1nnc2ccccc21)N(Cc1cncc(F)c1)c1ccc(C2CNC2)cc1", "note": "[Compound 119, N-[4-(azetidin-3-yl)phenyl]-2-(benzotriazol-1-yl)-N-[(5-fluoro-3-pyridyl)methyl]acetamide]", "IC50": 600}, {"molecule": "O=C(Cn1nnc2ccccc21)N(Cc1cc(F)cc(F)c1)c1ccc(-c2nnc[nH]2)cc1", "note": "[Compound 106, 2-(benzotriazol-1-yl)-N-[(3,5-difluorophenyl)methyl]-N-[4-(4H-1,2,4-triazol-3-yl)phenyl]acetamide]", "IC50": 940}, {"molecule": "O=C(Cn1nnc2ccccc21)N(Cc1cc(F)ccc1F)c1ccc(-c2c[nH]cn2)cc1", "note": "[Compound 80, 2-(benzotriazol-1-yl)-N-[(2,5-difluorophenyl)methyl]-N-[4-(1H-imidazol-4-yl)phenyl]acetamide]", "IC50": 220}, {"molecule": "O=C(Cn1nnc2ccccc21)N(Cc1cc(F)cc(OC(F)(F)F)c1)c1ccc(-c2c[nH]cn2)cc1", "note": "[Compound 120, 2-(benzotriazol-1-yl)-N-[[3-fluoro-5-(trifluoromethoxy)phenyl]methyl]-N-[4-(1H-imidazol-4-yl)phenyl]acetamide]", "IC50": 120}, {"molecule": "COc1ccc(CN(C(=O)Cn2nnc3ccccc32)c2ccc(-c3c[nH]cn3)cc2)cc1F", "note": "[Compound 117, 2-(benzotriazol-1-yl)-N-[(3-fluoro-4-methoxy-phenyl)methyl]-N-[4-(1H-imidazol-4-yl)phenyl]acetamide]", "IC50": 970}, {"molecule": "O=C(Cn1nnc2ccccc21)N(Cc1cccc(C(F)(F)F)c1)c1ccc(-c2c[nH]cn2)cc1", "note": "[Compound 76, 2-(benzotriazol-1-yl)-N-[4-(1H-imidazol-4-yl)phenyl]-N-[[3-(trifluoromethyl)phenyl]methyl]acetamide]", "IC50": 270}, {"molecule": "O=C(Cn1nnc2ccccc21)N(Cc1cc(F)cc(Cl)c1)c1ccc(-c2c[nH]cn2)cn1", "note": "[Compound 75, 2-(benzotriazol-1-yl)-N-[(3-chloro-5-fluoro-phenyl)methyl]-N-[5-(1H-imidazol-4-yl)-2-pyridyl]acetamide]", "IC50": 62}, {"molecule": "O=C(Cn1nnc2ccccc21)N(Cc1cc(F)cc(F)c1)c1ccc(C2CNC2)cc1", "note": "[Compound 118, N-[4-(azetidin-3-yl)phenyl]-2-(benzotriazol-1-yl)-N-[(3,5-difluorophenyl)methyl]acetamide]", "IC50": 78}, {"molecule": "O=C(Cn1nnc2ccccc21)N(Cc1ccsc1)c1ccc(-c2ccc[nH]c2=O)cc1", "note": "[Compound 17, 2-(1H-Benzo[d][1,2,3]triazol-1-yl)-N-(4-(2-oxo-1,2-dihydropyridin-3-yl)phenyl)-N-(thiophen-3-ylmethyl)acetamide]", "IC50": "920 ± 210"}, {"molecule": "O=C(Cn1nnc2ccccc21)N(Cc1cc(F)cc(F)c1)c1ccc(-c2ncc[nH]2)cc1", "note": "[Compound 100, 2-(benzotriazol-1-yl)-N-[(3,5-difluorophenyl)methyl]-N-[4-(1H-imidazol-2-yl)phenyl]acetamide]", "IC50": 340}, {"molecule": "O=C(Cn1nnc2ccccc21)N(Cc1cncc(Cl)c1)c1ccc(-c2c[nH]cn2)cc1", "note": "[Compound 85, 2-(benzotriazol-1-yl)-N-[(5-chloro-3-pyridyl)methyl]-N-[4-(1H-imidazol-4-yl)phenyl]acetamide]", "IC50": 89}, {"molecule": "O=C(Cn1nnc2ccccc21)N(Cc1cc(Cl)cc(Cl)c1)c1ccc(-c2cccnc2)cc1", "note": "[Compound 32, 2-(Benzotriazol-1-yl)-N-[(3,5-dichlorophenyl)methyl]-N-[4-(3-pyridyl)phenyl]acetamide]", "IC50": "176 ± 25"}, {"molecule": "O=C(Cn1nnc2ccccc21)N(Cc1ccc(Cl)c(F)c1)c1ccc(-c2c[nH]cn2)cc1", "note": "[Compound 116, 2-(benzotriazol-1-yl)-N-[(4-chloro-3-fluoro-phenyl)methyl]-N-[4-(1H-imidazol-4-yl)phenyl]acetamide]", "IC50": 2500}, {"molecule": "CC(C)(C)CN(C(=O)Cn1nnc2ccccc21)c1ccc(-c2c[nH]cn2)cc1", "note": "[Compound 114, 2-(benzotriazol-1-yl)-N-(2,2-dimethylpropyl)-N-[4-(1H-imidazol-4-yl)phenyl]acetamide]", "IC50": 1600}, {"molecule": "O=C(Cn1nnc2ccccc21)N(Cc1c(F)cccc1F)c1ccc(-c2c[nH]cn2)cc1", "note": "[Compound 98, 2-(benzotriazol-1-yl)-N-[(2,6-difluorophenyl)methyl]-N-[4-(1H-imidazol-4-yl)phenyl]acetamide]", "IC50": 980}, {"molecule": "COc1cc(Cl)cc(CN(C(=O)Cn2nnc3ccccc32)c2ccc(-c3c[nH]cn3)cc2)c1", "note": "[Compound 87, 2-(benzotriazol-1-yl)-N-[(3-chloro-5-methoxy-phenyl)methyl]-N-[4-(1H-imidazol-4-yl)phenyl]acetamide]", "IC50": 57}, {"molecule": "NCc1ccc(N(Cc2cc(F)cc(F)c2)C(=O)Cn2nnc3ccccc32)cc1", "note": "[Compound 124, N-[4-(aminomethyl)phenyl]-2-(benzotriazol-1-yl)-N-[(3,5-difluorophenyl)methyl]acetamide]", "IC50": 59}, {"molecule": "O=C(Cn1nnc2ccccc21)N(Cc1cc(F)cc(Cl)c1)c1ccc(-c2c[nH]cn2)cc1", "note": "[Compound 72, 2-(benzotriazol-1-yl)-N-[(3-chloro-5-fluoro-phenyl)methyl]-N-[4-(1H-imidazol-4-yl)phenyl]acetamide]", "IC50": 52}, {"molecule": "O=C(Cn1nnc2ccccc21)N(Cc1cncc(C(F)(F)F)c1)c1ccc(-c2c[nH]cn2)cc1", "note": "[Compound 96, 2-(benzotriazol-1-yl)-N-[4-(1H-imidazol-4-yl)phenyl]-N-[[5-(trifluoromethyl)-3-pyridyl]methyl]acetamide]", "IC50": 350}]}, {"system": "SARS-CoV-2", "assay": "microbe, parasite or virus in culture", "type": "cell-based", "details": "Severe acute respiratory syndrome coronavirus 2, Vero C1008, 68 h, read-out: CPE Inhibition Assay EC50", "units": {"EC50": "nM"}, "values": [{"molecule": "O=C(Cn1nnc2ccccc21)N(Cc1ccsc1)c1ccc(-c2cccnc2)cc1", "note": "[Compound 17b, 2-(1H-benzo[d][1,2,3]triazol-1-yl)-N-(4-(pyridin-3-yl)phenyl)-N-(thiophen-3-ylmethyl)acetamide, reference compound]", "EC50": "12100 ± 310"}, {"molecule": "CCC(CC)COC(=O)[C@H](C)N[P@](=O)(OC[C@H]1O[C@@](C#N)(c2ccc3c(N)ncnn23)[C@H](O)[C@@H]1O)Oc1ccccc1", "note": "[Remdesivir, reference compound]", "EC50": "340 ± 10"}, {"molecule": "O=C(Cn1nnc2ccccc21)N(Cc1cccc(Cl)c1)c1ccc(-c2ccc[nH]c2=O)cc1", "note": "[Compound 35, 2-(1H-Benzo[d][1,2,3]triazol-1-yl)-N-(3-chlorobenzyl)-N-(4-(2-oxo-1,2-dihydropyridin-3-yl)phenyl)acetamide]", "EC50": "8770 ± 1140"}, {"molecule": "O=C(Cn1nnc2ccccc21)N(Cc1cccc(Cl)c1)c1ccc(-c2cccnc2)cc1", "note": "[Compound 28, 2-(Benzotriazol-1-yl)-N-[(3-chlorophenyl)methyl]-N-[4-(3-pyridyl)phenyl]acetamide]", "EC50": "7610 ± 1430"}]}, {"system": "SARS-CoV-2", "assay": "microbe, parasite or virus in culture", "type": "cell-based", "details": "Severe acute respiratory syndrome coronavirus 2, Vero C1008, read-out: Plaque Reduction Assay EC50", "units": {"EC50": "nM"}, "values": [{"molecule": "O=C(Cn1nnc2ccccc21)N(Cc1ccsc1)c1ccc(-c2cccnc2)cc1", "note": "[Compound 17b, 2-(1H-benzo[d][1,2,3]triazol-1-yl)-N-(4-(pyridin-3-yl)phenyl)-N-(thiophen-3-ylmethyl)acetamide, reference compound]", "EC50": "14600 ± 1220"}, {"molecule": "CCC(CC)COC(=O)[C@H](C)N[P@](=O)(OC[C@H]1O[C@@](C#N)(c2ccc3c(N)ncnn23)[C@H](O)[C@@H]1O)Oc1ccccc1", "note": "[Remdesivir, reference compound]", "EC50": "430 ± 60"}, {"molecule": "O=C(Cn1nnc2ccccc21)N(Cc1cccc(Cl)c1)c1ccc(-c2cccnc2)cc1", "note": "[Compound 28, 2-(Benzotriazol-1-yl)-N-[(3-chlorophenyl)methyl]-N-[4-(3-pyridyl)phenyl]acetamide]", "EC50": "11100 ± 370"}]}, {"system": "SARS-CoV-2", "assay": "microbe, parasite or virus in culture", "type": "cell-based", "details": "Severe acute respiratory syndrome coronavirus 2, Vero C1008; Vero E6 ACE2 cells, approximately 50 PFUs SARS-CoV-2; read-out: Plaque Reduction Assay EC50", "units": {"EC50": "nM"}, "values": [{"molecule": "O=C(Cn1nnc2ccccc21)N(Cc1cccc(Cl)c1)c1ccc(-c2ccc[nH]c2=O)cc1", "note": "[Compound 35, 2-(1H-Benzo[d][1,2,3]triazol-1-yl)-N-(3-chlorobenzyl)-N-(4-(2-oxo-1,2-dihydropyridin-3-yl)phenyl)acetamide]", "EC50": "16700 ± 2440"}]}]}
